{
  "source": "patent US6124284A",
  "about": "“Bicyclic amide derivatives and their use as muscle relaxants” (Glaxo Wellcome Inc., priority 1998, dated 2000)",
  "system": "rat",
  "assay": "Established adjuvant arthritis (adjuvant-induced polyarthritis in the rat)",
  "assay_type": "in vivo, female Lewis rats",
  "settings": "50 mg/kg b.i.d.",
  "experimental": "The procedures for this test have been described in detail by R. Vinegar, J. F. Truax, J. L. Selph. A. Lea, and P. R. Johnston (J. Immunopharmacol. 1:497-520, 1979). The rats used in these studies were female Lewis rats whose starting weight was 190±10 g. Arthritic rats were assigned to treatment groups consisting of six animals each. Fed rats were dosed by oral gavage starting on day 21 post adjuvant injection; therapy was continued until day 28. The incidence and severity of arthritic lesions were assessed using a modification of the scoring procedure described by H. L. F. Currey and M. Ziff (J. Exp. Med. 121:185-203, 1968). Briefly, the bilateral joints were scored for erythema, edema, and ankylosis as outlined below:\nThe maximal possible score per rat was 40. Experimental results were analyzed by one-way ANOVA, followed by post hoc comparisons of treatment effects versus untreated arthritic control using the Newman-Keuls test. The percent inhibition of each drug-treated group was calculated from the mean relative to the arthritic control.",
  "data": [
    {"smiles": "NC(=O)/C=C1\\CCc2c(F)cc(F)cc21", "note": "[Example 5, (E)-2-(4,6 Difluoro-1-indanylidene)acetamide]", "values": [
      {"measurement": "arthritic scores", "setting": "oral gavage, days 22, 25, and 27, versus untreated arthritic control", "result": "significantly (p<0.01) lowered arthritic scores"},
      {"measurement": "Spleen weight", "setting": "postmortem on day 27", "result": "significantly reduced (p<0.01)"},
      {"measurement": "plasma fibrinogen", "setting": "postmortem on day 27", "result": "significantly reduced (p<0.01)"}
    ]}
  ]
}
